Activity calls are given as the source filed them. The rule behind the calls is not given here.
Legend:
[1] = molecular target: Tyrosine-protein kinase Lyn (Homo sapiens) (UniProt P07948); experiment: Inhibition of LYN (unknown origin) assessed as remaining activity at 1 uM by Kinome scan method relative to control
[2] = molecular target: LIM domain kinase 2 (Homo sapiens) (UniProt P53671); experiment: Inhibition of LIMK2 (unknown origin) assessed as remaining activity at 1 uM by Kinome scan method relative to control
[3] = molecular target: cAMP-dependent protein kinase catalytic subunit alpha (Homo sapiens) (UniProt P17612); experiment: Inhibition of PKAC-alpha (unknown origin) assessed as remaining activity at 1 uM by Kinome scan method relative to control
[4] = molecular target: Serine/threonine-protein kinase PknB (Mycobacterium tuberculosis) (UniProt P9WI81); experiment: Inhibition of Mycobacterium tuberculosis PknB assessed as remaining activity at 1 uM by Kinome scan method relative to control
[5] = molecular target: Interleukin-1 receptor-associated kinase 1 (Homo sapiens) (UniProt P51617); experiment: Inhibition of IRAK1 (unknown origin) assessed as remaining activity at 1 uM by Kinome scan method relative to control
[6] = molecular target: Mitogen-activated protein kinase kinase kinase 11 (Homo sapiens) (UniProt Q16584); experiment: Inhibition of MLK3 (unknown origin) assessed as remaining activity at 1 uM by Kinome scan method relative to control
[7] = molecular target: Megakaryocyte-associated tyrosine-protein kinase (Homo sapiens) (UniProt P42679); experiment: Inhibition of CTK (unknown origin) assessed as remaining activity at 1 uM by Kinome scan method relative to control
[8] = Down regulation of BMX protein expression in human RV-1 cells expressing wild type BMX assessed protein expression level at 2.5 uM pre incubated for 4 hrs followed by compound wash out and additon of CHX and measured after 16 hrs by immunoblot analysis (reference value: 0.98 to 1.01); assay type: functional
[9] = molecular target: Serine/threonine-protein kinase 4 (Homo sapiens) (UniProt Q13043); experiment: Inhibition of MST1 (unknown origin) assessed as remaining activity at 1 uM by Kinome scan method relative to control
[10] = molecular target: cGMP-dependent protein kinase 1 (Homo sapiens) (UniProt Q13976); experiment: Inhibition of PRKG1 (unknown origin) assessed as remaining activity at 1 uM by Kinome scan method relative to control
[11] = molecular target: Rho-associated protein kinase 1 (Homo sapiens) (UniProt Q13464); experiment: Inhibition of ROCK1 (unknown origin) assessed as remaining activity at 1 uM by Kinome scan method relative to control
[12] = molecular target: Vascular endothelial growth factor receptor 2 (Homo sapiens) (UniProt P35968); experiment: Inhibition of VEGFR2 (unknown origin) assessed as remaining activity at 1 uM by Kinome scan method relative to control
[13] = molecular target: Protein kinase C eta type (Homo sapiens) (UniProt P24723); experiment: Inhibition of PRKCH (unknown origin) assessed as remaining activity at 1 uM by Kinome scan method relative to control
[14] = Inhibition of PI3K/AKT/mTOR signalling pathway in human RV-1 cells assessed as decrease in FOXO3A phosphorylation at S253 residue at 2.5 uM incubated for 4 hrs by immunoblot analysis; assay type: cell-based
[15] = system: BaF3; experiment: Antiproliferative activity against mouse BaF3 cells expressing TEL-fused BMX Cys496Ser assessed growth inhibition incubated for 2 to 5 days by CellTiter-Glo assay; assay type: functional, cell-based
[16] = molecular target: Calcium/calmodulin-dependent protein kinase type II subunit alpha (Homo sapiens) (UniProt Q9UQM7); experiment: Inhibition of CAMK2A (unknown origin) assessed as remaining activity at 1 uM by Kinome scan method relative to control
[17] = Inhibition of PI3K/AKT/mTOR signalling pathway in human RV-1 cells assessed as decrease in S6K phosphorylation at T389 residue at 2.5 uM incubated for 4 hrs by immunoblot analysis; assay type: cell-based
[18] = molecular target: Non-receptor tyrosine-protein kinase TYK2 (Homo sapiens) (UniProt P29597); experiment: Inhibition of TYK2 JH1 domain (unknown origin) assessed as remaining activity at 1 uM by Kinome scan method relative to control
[19] = molecular target: cAMP-dependent protein kinase catalytic subunit PRKX (Homo sapiens) (UniProt P51817); experiment: Inhibition of PRKX (unknown origin) assessed as remaining activity at 1 uM by Kinome scan method relative to control
[20] = molecular target: Proto-oncogene tyrosine-protein kinase ROS (Homo sapiens) (UniProt P08922); experiment: Inhibition of ROS1 (unknown origin) assessed as remaining activity at 1 uM by Kinome scan method relative to control
[21] = Inhibition of PI3K/AKT/mTOR signalling pathway in human RV-1 cells assessed as decrease in S6K phosphorylation at T389 residue at 2.5 uM incubated for 5 days by immunoblot analysis; assay type: cell-based; details: time 5.0 day
[22] = system: RV-1; experiment: Inhibition of MAPK signalling pathway in human RV-1 cells assessed as decrease in ERK1/2 phosphorylation at T202/204 residue at 2.5 uM incubated for 4 hrs by immunoblot analysis; assay type: cell-based
[23] = system: RV-1; experiment: Antiproliferative activity against human RV-1 cells assessed as reduction in cell viability at 500 to 2500 nM incubated for 5 days in presence of Torin2 by CellTiter-Glo assay; assay type: functional, cell-based; details: dose 500-2500 nM, time 5.0 day
[24] = system: RV-1; experiment: Antiproliferative activity against human RV-1 cells assessed as reduction in cell viability at 500 to 2500 nM incubated for 5 days in presence of WYE125132 by CellTiter-Glo assay; assay type: functional, cell-based; details: dose 500-2500 nM, time 5.0 day
[25] = system: RV-1; experiment: Induction of apoptosis in human RV-1 cells assessed as decrease in number of cell at 5 uM incubated for 3 days by Hoechst 33342 staining based analysis; assay type: functional; details: time 3.0 day
[26] = Cytotoxicity against mouse BaF3 cells assessed growth inhibition incubated for 2 to 5 days by CellTiter-Glo assay; assay type: toxicity, cell-based; details: time 2-5 day
[27] = molecular target: Serine/threonine-protein kinase ULK1 (Homo sapiens) (UniProt O75385); experiment: Inhibition of ULK1 (unknown origin) assessed as remaining activity at 1 uM by Kinome scan method relative to control
[28] = Inhibition of PI3K/AKT/mTOR signalling pathway in human RV-1 cells assessed as decrease in AKT phosphorylation at T308 residue at 2.5 uM incubated for 5 days by immunoblot analysis; assay type: cell-based; details: time 5.0 day
[29] = molecular target: Tyrosine-protein kinase TXK (Homo sapiens) (UniProt P42681); experiment: Inhibition of TXK (unknown origin) assessed as remaining activity at 1 uM by Kinome scan method relative to control
[30] = molecular target: Mitogen-activated protein kinase 14 (Homo sapiens) (UniProt Q16539); experiment: Inhibition of P38alpha (unknown origin) assessed as remaining activity at 1 uM by Kinome scan method relative to control
[31] = molecular target: Focal adhesion kinase 1 (Homo sapiens) (UniProt Q05397); experiment: Inhibition of FAK (unknown origin) assessed as remaining activity at 1 uM by Kinome scan method relative to control
[32] = molecular target: Rhodopsin kinase GRK7 (Homo sapiens) (UniProt Q8WTQ7); experiment: Inhibition of GRK7 (unknown origin) assessed as remaining activity at 1 uM by Kinome scan method relative to control

Sequence of Calcium/calmodulin-dependent protein kinase type II subunit alpha (Homo sapiens) (Q9UQM7 whole entry): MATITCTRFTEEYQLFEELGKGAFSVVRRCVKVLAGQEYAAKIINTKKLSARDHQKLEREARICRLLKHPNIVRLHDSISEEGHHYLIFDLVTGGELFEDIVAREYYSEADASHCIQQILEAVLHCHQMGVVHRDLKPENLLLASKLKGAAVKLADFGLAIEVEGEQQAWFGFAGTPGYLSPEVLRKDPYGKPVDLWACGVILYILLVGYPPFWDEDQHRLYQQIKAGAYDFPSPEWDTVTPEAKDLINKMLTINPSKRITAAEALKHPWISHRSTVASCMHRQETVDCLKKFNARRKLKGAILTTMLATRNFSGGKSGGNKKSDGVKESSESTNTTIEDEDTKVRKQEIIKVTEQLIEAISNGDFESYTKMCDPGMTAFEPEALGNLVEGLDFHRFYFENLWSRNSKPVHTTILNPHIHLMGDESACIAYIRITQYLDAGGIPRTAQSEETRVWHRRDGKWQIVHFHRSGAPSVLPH
Sequence of Serine/threonine-protein kinase ULK1 (Homo sapiens) (O75385 whole entry): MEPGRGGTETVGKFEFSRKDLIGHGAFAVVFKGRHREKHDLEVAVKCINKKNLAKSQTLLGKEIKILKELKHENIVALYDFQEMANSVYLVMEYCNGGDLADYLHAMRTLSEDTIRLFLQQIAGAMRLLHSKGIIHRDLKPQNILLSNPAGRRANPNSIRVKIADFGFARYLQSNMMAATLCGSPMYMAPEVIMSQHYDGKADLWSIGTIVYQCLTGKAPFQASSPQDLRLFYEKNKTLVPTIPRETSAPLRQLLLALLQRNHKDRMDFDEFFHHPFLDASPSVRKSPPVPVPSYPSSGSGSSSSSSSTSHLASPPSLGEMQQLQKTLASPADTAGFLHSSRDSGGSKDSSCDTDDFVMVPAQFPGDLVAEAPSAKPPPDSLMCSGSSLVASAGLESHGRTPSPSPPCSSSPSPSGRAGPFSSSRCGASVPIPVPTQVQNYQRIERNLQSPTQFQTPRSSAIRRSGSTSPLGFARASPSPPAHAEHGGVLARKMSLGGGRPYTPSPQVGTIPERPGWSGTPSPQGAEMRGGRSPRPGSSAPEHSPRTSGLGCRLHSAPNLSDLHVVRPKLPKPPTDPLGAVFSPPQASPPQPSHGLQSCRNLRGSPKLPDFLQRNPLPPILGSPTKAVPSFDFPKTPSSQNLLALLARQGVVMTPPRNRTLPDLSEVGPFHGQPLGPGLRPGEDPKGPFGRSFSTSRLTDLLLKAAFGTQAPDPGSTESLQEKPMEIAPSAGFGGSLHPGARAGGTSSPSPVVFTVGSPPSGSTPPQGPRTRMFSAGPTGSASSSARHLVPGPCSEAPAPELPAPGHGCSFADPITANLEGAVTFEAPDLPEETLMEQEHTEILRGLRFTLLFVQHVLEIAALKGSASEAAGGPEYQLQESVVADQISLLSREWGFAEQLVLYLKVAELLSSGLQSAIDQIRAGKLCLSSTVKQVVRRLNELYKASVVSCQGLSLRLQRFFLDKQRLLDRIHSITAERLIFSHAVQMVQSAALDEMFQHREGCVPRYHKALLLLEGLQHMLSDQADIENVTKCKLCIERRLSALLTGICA
Sequence of Megakaryocyte-associated tyrosine-protein kinase (Homo sapiens) (P42679 whole entry): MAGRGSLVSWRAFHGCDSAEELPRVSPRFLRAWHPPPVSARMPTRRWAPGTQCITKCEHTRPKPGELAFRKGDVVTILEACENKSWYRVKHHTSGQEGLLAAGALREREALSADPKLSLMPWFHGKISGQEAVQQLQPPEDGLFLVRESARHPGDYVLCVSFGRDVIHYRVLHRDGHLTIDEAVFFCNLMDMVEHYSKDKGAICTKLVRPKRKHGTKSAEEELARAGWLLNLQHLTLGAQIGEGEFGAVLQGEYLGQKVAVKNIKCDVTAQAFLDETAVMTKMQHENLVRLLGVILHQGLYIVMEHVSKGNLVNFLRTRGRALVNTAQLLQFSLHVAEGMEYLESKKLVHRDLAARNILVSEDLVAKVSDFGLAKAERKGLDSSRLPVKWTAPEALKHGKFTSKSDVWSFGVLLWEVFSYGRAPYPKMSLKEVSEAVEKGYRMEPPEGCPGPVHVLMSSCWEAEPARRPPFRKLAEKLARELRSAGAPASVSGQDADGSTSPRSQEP
Sequence of Mitogen-activated protein kinase 14 (Homo sapiens) (Q16539 whole entry): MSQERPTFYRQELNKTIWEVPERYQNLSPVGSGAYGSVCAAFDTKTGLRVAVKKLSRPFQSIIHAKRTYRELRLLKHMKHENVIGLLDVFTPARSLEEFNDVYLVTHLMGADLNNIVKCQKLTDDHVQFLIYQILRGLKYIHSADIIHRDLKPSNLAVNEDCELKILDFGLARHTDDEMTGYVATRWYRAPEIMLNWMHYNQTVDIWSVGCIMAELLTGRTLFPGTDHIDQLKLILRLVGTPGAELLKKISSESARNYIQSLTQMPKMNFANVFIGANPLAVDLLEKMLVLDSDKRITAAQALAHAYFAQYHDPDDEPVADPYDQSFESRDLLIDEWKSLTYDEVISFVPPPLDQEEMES
Sequence of Focal adhesion kinase 1 (Homo sapiens) (Q05397 2-1052 limits assumed): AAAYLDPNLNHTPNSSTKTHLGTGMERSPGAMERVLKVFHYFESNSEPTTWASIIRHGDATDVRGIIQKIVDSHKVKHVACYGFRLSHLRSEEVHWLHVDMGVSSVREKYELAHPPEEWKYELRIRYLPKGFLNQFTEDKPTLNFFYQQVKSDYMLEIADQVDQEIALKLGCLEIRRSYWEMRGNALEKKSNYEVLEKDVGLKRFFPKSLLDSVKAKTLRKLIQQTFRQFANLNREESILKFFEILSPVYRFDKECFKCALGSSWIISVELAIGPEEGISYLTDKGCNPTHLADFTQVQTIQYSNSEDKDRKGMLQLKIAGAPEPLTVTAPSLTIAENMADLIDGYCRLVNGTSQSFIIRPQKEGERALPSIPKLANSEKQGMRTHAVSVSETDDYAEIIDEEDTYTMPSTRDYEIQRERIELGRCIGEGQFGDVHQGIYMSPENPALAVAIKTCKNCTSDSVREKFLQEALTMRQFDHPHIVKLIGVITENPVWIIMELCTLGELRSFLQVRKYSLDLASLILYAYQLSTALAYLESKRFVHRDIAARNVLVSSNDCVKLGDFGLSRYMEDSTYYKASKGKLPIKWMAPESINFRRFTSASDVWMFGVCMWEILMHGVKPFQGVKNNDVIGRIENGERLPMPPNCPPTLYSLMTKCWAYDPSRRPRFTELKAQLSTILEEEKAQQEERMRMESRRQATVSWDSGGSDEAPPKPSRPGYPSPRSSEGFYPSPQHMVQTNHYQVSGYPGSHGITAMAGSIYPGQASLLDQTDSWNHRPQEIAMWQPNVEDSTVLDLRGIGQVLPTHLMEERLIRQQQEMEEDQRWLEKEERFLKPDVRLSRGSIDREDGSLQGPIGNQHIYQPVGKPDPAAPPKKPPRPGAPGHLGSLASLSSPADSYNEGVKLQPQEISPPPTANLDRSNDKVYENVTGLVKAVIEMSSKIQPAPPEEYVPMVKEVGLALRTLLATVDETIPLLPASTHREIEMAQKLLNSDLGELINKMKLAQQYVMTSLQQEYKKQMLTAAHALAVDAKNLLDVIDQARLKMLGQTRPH
Sequence of Non-receptor tyrosine-protein kinase TYK2 (Homo sapiens) (P29597 whole entry, the tested form may be a part): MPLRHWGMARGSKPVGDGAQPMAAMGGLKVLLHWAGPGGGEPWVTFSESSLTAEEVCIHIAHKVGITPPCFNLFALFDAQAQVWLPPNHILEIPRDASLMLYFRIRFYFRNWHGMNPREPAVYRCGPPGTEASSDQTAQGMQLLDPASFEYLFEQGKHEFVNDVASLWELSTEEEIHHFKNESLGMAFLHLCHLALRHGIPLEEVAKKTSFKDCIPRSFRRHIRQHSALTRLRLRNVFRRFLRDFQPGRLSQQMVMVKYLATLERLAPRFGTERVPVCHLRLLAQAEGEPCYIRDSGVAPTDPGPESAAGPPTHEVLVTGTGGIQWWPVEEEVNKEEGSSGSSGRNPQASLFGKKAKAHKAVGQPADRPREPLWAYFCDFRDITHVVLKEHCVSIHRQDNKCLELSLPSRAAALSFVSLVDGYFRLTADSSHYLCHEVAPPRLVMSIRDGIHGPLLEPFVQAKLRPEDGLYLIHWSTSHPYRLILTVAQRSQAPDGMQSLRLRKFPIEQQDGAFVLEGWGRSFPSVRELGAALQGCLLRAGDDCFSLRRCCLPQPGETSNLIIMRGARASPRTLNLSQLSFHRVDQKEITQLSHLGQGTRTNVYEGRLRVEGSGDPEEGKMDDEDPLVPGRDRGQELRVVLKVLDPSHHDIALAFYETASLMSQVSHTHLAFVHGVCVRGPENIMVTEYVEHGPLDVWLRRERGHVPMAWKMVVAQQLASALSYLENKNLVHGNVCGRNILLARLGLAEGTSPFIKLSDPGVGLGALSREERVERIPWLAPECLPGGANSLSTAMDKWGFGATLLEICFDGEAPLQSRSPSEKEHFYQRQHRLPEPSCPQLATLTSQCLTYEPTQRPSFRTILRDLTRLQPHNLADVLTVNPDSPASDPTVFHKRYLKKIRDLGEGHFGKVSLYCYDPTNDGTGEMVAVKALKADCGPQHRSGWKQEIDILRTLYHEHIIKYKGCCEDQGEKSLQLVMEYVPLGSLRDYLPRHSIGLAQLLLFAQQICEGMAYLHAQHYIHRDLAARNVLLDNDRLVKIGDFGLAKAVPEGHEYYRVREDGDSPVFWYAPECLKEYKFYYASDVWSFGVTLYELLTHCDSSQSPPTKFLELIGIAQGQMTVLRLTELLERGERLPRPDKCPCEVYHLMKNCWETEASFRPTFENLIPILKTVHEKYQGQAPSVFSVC
Sequence of cAMP-dependent protein kinase catalytic subunit PRKX (Homo sapiens) (P51817 whole entry): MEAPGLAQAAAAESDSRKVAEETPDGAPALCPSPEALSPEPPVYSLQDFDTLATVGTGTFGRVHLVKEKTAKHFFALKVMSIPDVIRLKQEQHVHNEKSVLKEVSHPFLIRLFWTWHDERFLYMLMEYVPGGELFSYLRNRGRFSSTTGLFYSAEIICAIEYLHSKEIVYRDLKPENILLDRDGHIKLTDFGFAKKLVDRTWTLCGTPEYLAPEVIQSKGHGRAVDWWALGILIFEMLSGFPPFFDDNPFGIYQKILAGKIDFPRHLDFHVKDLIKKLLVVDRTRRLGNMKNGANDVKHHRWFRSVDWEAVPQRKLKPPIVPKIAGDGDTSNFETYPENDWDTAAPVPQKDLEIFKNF

Structure (SMILES): C=CC(=O)Nc1cc(-n2c(=O)ccc3cnc4ccc(-c5ccc(NS(C)(=O)=O)cc5)cc4c32)ccc1C
- Activity [1]: 92%
- Activity [2]: 92%
- Activity [3]: 83%
- Activity [4]: 41%
- Activity [5]: 72%
- Activity [6]: 91%
- Activity [7]: 92%
- Activity [8]: 0.28
- Activity [9]: 92%
- Activity [10]: 87%
- Activity [11]: 56%
- Activity [12]: 97%
- Activity [13]: 98%
- inhibition [14]: inactive
- IC50 [15]: > 10 µM
- Activity [16]: 98%
- inhibition [17]: inactive
- Activity [18]: 80%
- Activity [19]: 77%
- Activity [20]: 81%
- inhibition [21]: Active
- inhibition [22]: inactive
- Activity [23]: Active
- Activity [24]: Active
- Activity [25]: Active
- GI50 [26]: > 10 µM
- Activity [27]: 84%
- inhibition [28]: Active
- Activity [29]: 25%
- Activity [30]: 98%
- Activity [31]: 96%
- Activity [32]: 75%

Source: ChEMBL document CHEMBL5715949, “Discovery of a selective irreversible BMX inhibitor for prostate cancer” (ACS Chem Biol, 2013)
